Laboratory results published in patent US8367620B2, “Peptidic growth hormone secretagogues analog compounds and preparations thereof” (Centro de Ingenieria Genetica y Biotecnologia, priority 2006, dated 2013).

How the values were obtained:
PC12 cells = format: cell-based; conditions: differentiated PC12 cells, 72 h incubation, MTT; read-out: IC50 during the NGF deprivation induced neuronal death
Experimental: PC12 cells were stored in 75 cm^2 culture flasks on DMEM containing 5% bovine foetal serum and 10% horse serum, with 50 μg/ml gentamicin. Cells were incubated at 37° C. in 5% CO2. To induce differentiation cells were transferred at a density of 1×10^4 to polylysine covered 96 well plates in NGF supplemented DMEM media for 7 days, with medium replacement every 2-3 days. After differentiation cells were incubated with peptidic GHS analog compounds, at different concentrations for 72 h. Cell survival and proliferation was determined using the Promega non-radioactive cytotoxicity proliferation assay, Cell Titer 96, based in the conversion of 3-(4,5-dimethylthiazole-2-yl)-2,5-diphenyltetrazolium bromide (MTT) in to a spectrophotometrically detectable product. After deprivation of NGF medium is removed and 15 μl of the DMEM dissolved dye is added, after 4 hours of 37° C. incubation 100 μl of the stopping solution is added and absorbance is measured at 570 nm

[1] = system: primary cultures of granular cerebellum cells; format: cell-based, Wistar rats; conditions: 500 μM hydrogen peroxide, rat cerebellum granular cells; read-out: IC50 during the induced neuronal damage by Hydrogen Peroxide addition to a primary culture of neurons
Experimental: Primary cultures of granular cerebellum cells were obtained from 7-9 days Wistar rats. After a rapid dissection, rat cerebellums were submerged in a cold solution and meningeal membranes were removed, each organ was transferred to a 2-3 ml fresh medium solution and finely sliced. Cells were dissociated using a Pasteur pipette and filtered through a nylon […] membrane (Falcon, Franklin Lakes, N.J.). The number of viable cells was determined by cell counting in a hematocytometer with tripan blue as a marker. Cells were cultured on polylysine covered 96 well plates at a density of 6250 cells in […] final volume. Cultures were kept at 37° C. in 5%. CO2 after 24 h, 10 μM of cytosine arabinofuranose (AraC; Sigma) was added to inhibit the proliferation of non-neuronal cells. The capacity of neural damage prevention was tested adding 500 μM hydrogen peroxide in different concentrations of peptidic GHS analog compounds, Cell survival was determined using the Promega non-radioactive cytotoxicity proliferation assay, Cell Titer 96 (Promega).

IGF-I mRNA = IGF-I mRNA in liver and GH level of intraperitoneally injected tilapias; format: in vivo, tilapia; conditions: liver of intraperitoneally injected tilapias
Experimental: IGF-I mRNa was determined in the liver of intraperitoneally injected tilapias monitoring also the GH level time course, showing the peptidic GHS analog compounds as able to stimulate in fish the GH levels in the bloodstream and at incrementing the IGF-I mRNA levels after the injection of the compounds as shown in table 4.

tilapias = assay: Growth acceleration on juvenile tilapias treated intraperitoneally; format: in vivo; conditions: juvenile tilapia, ip 0.1 μg/g twice a week, three weeks
Experimental: The compounds were dissolved in a sodium phosphate (PBS) buffer solution and injected twice a week, during three weeks at 0.1 μg/g of humid fish weight (gbw). Compounds were applied individually to a group of 10 male tilapias with an average weight of 60.41±10.36 g and a control group with an average weight of 60.58±19.67 g was receiving PBS only as a control, measuring the average weight every week, all animals in the experiment were labelled with microchips (Stoelting Co. Wood Dale, USA.). for proper identification.

[2] = system: tilapia Oreochromis sp. larvae; assay: Growth stimulation of tilapia larvae by immersion; format: in vivo; conditions: immersion 100 μg/L, one hour twice a week, three weeks
Experimental: (§1) Growth stimulation experiments on tilapia Oreochromis sp. larvae were performed evaluating groups of 100 larvae with 0.01 g average, using the peptidic GHS analogs, in a 100 μg/L concentration, twice a week using an immersion time of one hour.

lysozyme = assay: Lysozyme levels in tilapia larvae treated by immersion; format: in vivo, Oreochromis sp.; conditions: immersion 100 μg/L
Experimental: as §1
During this experiment lysozyme levels were also monitored and an increase of this immunity marker was obtained in the treated animals as shown in table 8.

Litopenaeus vanamei = assay: Growing of shrimp larvae by dipping in solution of the compounds; format: in vivo; conditions: four dips of one hour every three days, 0.1 g/L
Experimental: Shrimp larvae were subjected two four dips, for one hour every three days with different peptidic GHS analogs at 0.1 g/L. The control group was subjected to the same frequency of dipping with 1 mg/L BSA.

[3] = system: Post-larvae of Litopenaeus vanamei; assay: Growth stimulation in shrimps by dietary supplementation; format: in vivo; conditions: compound at 1% in post-larvae crustacean diet
Experimental: The peptidic GHS analogs were included at 1% in a post-larvae crustacean diet. Post-larvae of Litopenaeus vanamei were fed with the aforementioned diet in parallel with a control group with 1% BSA addition. The effect was measured with an optical micrometer and weighing the animals in a 0.1 mg precision scale.

[4] = system: Litopenaeus vanamei post-larvae; assay: Growth of shrimp post-larvae fed Artemia-bioencapsulated compounds; format: in vivo; conditions: Artemia bioencapsulated (10 mh/L, one hour), fed four times a day for one month
Experimental: The peptidic GHS analogs were bioencapsulated in Artemia to be fed to Litopenaeus vanamei post-larvae. For the encapsulation the compounds were added in a 10 mh/L left for an hour, harvested and washed. The animals were fed four times a day for one month while the control group was fed with BSA encapsulated Artemia The effect was measured with an optical micrometer and weighing the animals in a 0.1 mg precision scale.

Sequence	IC50 (PC12 cells)	IC50 [1]	Normalized IGF-I mRNA levels to a non related synthetic peptide control group (IGF-I mRNA)	Weight Inc. (%), control group growing = 100% (tilapias)	Weight Inc. (%), control group growing = 100% [2]	Lysozyme levels of the treated animals relative to the control group (lysozyme)	Size Inc. (%), control group growing = 100% (Litopenaeus vanamei)	Weight Inc. (%), control group growing = 100% (Litopenaeus vanamei)	Size Inc. (%), control group growing = 100% [3]	Size Inc. (%), control group growing = 100% [4]
ALDFKPNIP [Compound A225, L-amino acid peptide with internal side-chain cycle, SEC; ID NO: 5]	4.07 µM	3.99 µM	1.38	120.0%	98.0%	1.43	112.6%	121.0%	130.0%	130.0%
GDAGAKLLSSR [Compound A234]	5.86 µM	3.72 µM	1.17	110.6%	120.6%	2.77	114.2%	123.6%	138.6%	135.0%
GEGYKLDERSQ [Compound A236, L-amino acid peptide with internal side-chain cycle, SEC; ID NO: 16]	3 µM	3.33 µM	1.13	99.0%	105.0%	1.42	112.0%	121.0%	137.0%	138.0%
GGEAGKLCPPRY [Compound A237, L-amino acid peptide with internal side-chain cycle, SEC; ID NO: 17]	3.33 µM	2.51 µM	1.201	100.0%	109.9%	1.01	116.2%	127.0%	132.0%	136.0%
GGGKFWDIPHH [Compound A231, L-amino acid peptide with internal side-chain cycle, SEC; ID NO: 11]	4 µM	3.46 µM	1.39	150.2%	151.0%	1.89	123.0%	130.0%	140.1%	140.2%
GKFDSPEHQ [Compound A230]	4.06 µM	3.81 µM	1.48	158.0%	150.0%	1.33	123.6%	150.0%	140.0%	140.0%
